We go through four compounds from paper PMC8307647, “Bio-Guided Fractionation of Stem Bark Extracts from Phyllanthus muellarianus: Identification of Phytocomponents with Anti-Cholinesterase Activity” (Molecules, 2021).

One experiment deals with BuChE from human serum (Homo sapiens, UniProt P06276). The experiment can be described thus: biochemical. The class given is biochemical. As to conditions: for inhibition at 100 µg/mL: read-out: Inhibition hBuChE at 100 µg/mL % ± SD.
In another experiment the test system is male Swiss mice. Set-up: method as in PMID 29186770. As to conditions: single dose 20 mg kg−1 b.w.; cited from earlier work.
In a further experiment the target is Human recombinant AChE (Homo sapiens, UniProt P22303). The experiment is described as follows: biochemical. As to conditions: for inhibition at 100 µg/mL: read-out: Inhibition hAChE at 100 µg/mL % ± SD.
A further experiment concerns T1, Aβ1–42.
T1 construct: 42-aminoacid long Aβ peptide (Aβ1–42) self-aggregation; purchased Bachem AG, Bubendorf, Switzerland
The experiment is described as follows: Inhibition of Aβ1–42 self-aggregation, thioflavin T fluorescence assay. Type of experiment: biochemical. As to conditions: 1:1 molar ratio with Aβ (50 μM), 30 °C, 24 h. Here is the method: As reported in the previously published protocol by Bartolini et al., 1,1,1,3,3,3,hexafluoro 2-propanol pre-treated Aβ1–42 samples (Bachem AG, Bubendorf, Switzerland) were solubilized with a AcCN/0.3 mM Na2CO3/250 mM NaOH (48.4/48.4/3.2) mixture to obtain a 500 μM stock solution. Experiments were performed by diluting (final Aβ concentration 50 μM) and incubating the peptide in 10 mM phosphate buffer (pH = 8.0) containing 10 mM NaCl, at 30 °C for 24 h with and without nitidine (50 μM, Aβ/nitidine = 1/1). A blank sample containing nitidine was also prepared. To quantify amyloid fibril formation, the thioflavin T fluorescence method was used. After incubation, samples were diluted to a final volume of 2.0 mL with 50 mM glycine-NaOH buffer (pH 8.5) containing 1.5 μM thioflavin T. A 300-second time scan of fluorescence intensity was carried out (λexc = 446 nm; λem = 490 nm, FP-6200 fluorometer, Jasco Europe, Cremella, Italy), and values at plateau were averaged after subtracting the background fluorescence of 1.5 μM thioflavin T solution. The fluorescence intensities obtained in the absence and in the presence of nitidine were compared and the percent inhibition due to the presence of nitidine was calculated by the following formula: 100 − (100 × IFi/IFo), where IFi and IFo are the fluorescence intensities obtained for Aβ1–42 in the presence and in the absence of nitidine, respectively.

A further experiment relates to Aβ. As to conditions: cited from earlier work.
The next experiment deals with human cholinesterases. As to conditions: cited from earlier work.

Where two headings read alike, the source gives them in different places.

Human recombinant AChE, sequence (P22303 32-614): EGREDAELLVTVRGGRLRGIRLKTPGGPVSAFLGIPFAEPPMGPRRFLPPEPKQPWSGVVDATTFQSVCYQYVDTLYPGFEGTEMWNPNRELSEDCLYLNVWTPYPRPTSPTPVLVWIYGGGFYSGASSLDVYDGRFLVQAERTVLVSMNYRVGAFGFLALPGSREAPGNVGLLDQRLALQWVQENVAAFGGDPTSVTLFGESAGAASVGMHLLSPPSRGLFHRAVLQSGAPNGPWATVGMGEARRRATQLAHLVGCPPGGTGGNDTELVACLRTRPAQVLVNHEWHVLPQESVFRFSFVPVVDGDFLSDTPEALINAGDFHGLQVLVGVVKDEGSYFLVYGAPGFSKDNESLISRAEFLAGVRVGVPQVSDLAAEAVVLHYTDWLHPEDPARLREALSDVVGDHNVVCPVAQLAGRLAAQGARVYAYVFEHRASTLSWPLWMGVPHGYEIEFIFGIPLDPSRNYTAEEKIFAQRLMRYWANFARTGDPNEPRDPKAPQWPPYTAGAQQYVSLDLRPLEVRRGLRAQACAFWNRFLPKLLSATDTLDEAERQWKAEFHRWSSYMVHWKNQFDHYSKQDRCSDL
BuChE from human serum, sequence (P06276 29-602): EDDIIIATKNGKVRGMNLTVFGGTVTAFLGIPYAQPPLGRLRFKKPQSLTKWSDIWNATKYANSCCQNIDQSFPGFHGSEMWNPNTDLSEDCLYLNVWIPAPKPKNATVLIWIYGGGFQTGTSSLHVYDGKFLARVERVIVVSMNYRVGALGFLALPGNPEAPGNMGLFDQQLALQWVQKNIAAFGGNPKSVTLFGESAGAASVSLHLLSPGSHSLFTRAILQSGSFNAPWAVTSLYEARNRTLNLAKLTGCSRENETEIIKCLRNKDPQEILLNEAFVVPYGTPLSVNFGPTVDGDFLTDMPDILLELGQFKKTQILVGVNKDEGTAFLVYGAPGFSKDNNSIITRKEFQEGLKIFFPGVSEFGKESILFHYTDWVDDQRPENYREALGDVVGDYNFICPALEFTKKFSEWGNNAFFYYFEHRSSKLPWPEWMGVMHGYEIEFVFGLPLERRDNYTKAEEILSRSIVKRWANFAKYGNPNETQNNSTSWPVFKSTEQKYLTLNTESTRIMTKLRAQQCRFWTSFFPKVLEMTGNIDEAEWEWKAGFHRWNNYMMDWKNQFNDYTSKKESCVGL

For `COc1ccc2c3c1O[C@H]1C[C@@H](O)C=C[C@@]31CCN(C)C2` [Galanthamine, reference compound], the inhibition at 100 µg/mL at BuChE from human serum was more than 90%.
The IC50 is the point on the concentration scale where inhibition reaches its midpoint. Consider `COc1ccc2c(c1O)-c1c(O)c(OC)cc3c1[C@H](C2)[N+](C)(C)CC3` [Magnoflorine (PC1), Magnoflorine], for which the “cognitive functions in a passive avoidance test” value with male Swiss mice is on record as “significantly enhanced”. Moreover, the “long-term scopolamine-induced memory impairment” value in the experiment with male Swiss mice is listed as “able to reverse”. Further, the IC50 on BuChE from human serum (read-out: IC50 hBuChE µM ± SD) was 131 ± 9 µM; at Human recombinant AChE (read-out: IC50 hAChE µM ± SD) it was 1120 ± 83 µM. Moreover, the inhibition at 100 µg/mL on BuChE from human serum came to 69.9 ± 2.4%; at Human recombinant AChE, 19 ± 2.9%. Also, the selectivity index on BuChE from human serum (selective for hBuChE over hAChE) was 8.5.
For `COc1cc2c[n+](C)c3c4cc5c(cc4ccc3c2cc1OC)OCO5` [Nitidine (PC3), 2,3-dimethoxy-12-methyl-[1,3]benzodioxolo[5,6-c]phenanthridin-12-ium], at BuChE from human serum, inhibition was half-maximal at 6.68 ± 0.13 µM (IC50) and the inhibition at 100 µg/mL was more than 90%. For the same compound, at Human recombinant AChE, the IC50 was determined as 5.31 ± 0.5 µM and the inhibition at 100 µg/mL was more than 90%. Further, the “inhibition percentage of Aβ1–42 self-aggregation” value with Aβ1–42 amounted to 15.9 ± 1.0.
For `COc1ccc2c(c[n+](C)c3c4cc5c(cc4ccc23)OCO5)c1OC` [chelerythrine, 1,2-dimethoxy-12-methyl[1,3]benzodioxolo[5,6-c]phenanthridin-12-ium], the “inhibition of Aβ self-aggregation” value in the experiment with Aβ is on record as “significantly inhibit”. Further, the “inhibition of human cholinesterases” value with human cholinesterases is “micromolar inhibitor”.
